From US9044485B2, “Ceftolozane antibiotic compositions” (priority 2013, dated 2015)

Key:
[1] = tested on: P. aeruginosa; assay: Minimum inhibitory concentration (MIC90); type: cell-based; settings: Pseudomonas aeruginosa
[2] = Intrinsic pH of ceftolozane in solution; type: physicochemical; settings: in solution (2%)
[3] = tested on: Enterobacteriaceae; assay: In vitro activity against Gram-positive and Gram-negative bacteria (surveillance data); type: cell-based; settings: against Acinetobacter spp. and common species of Enterobacteriaceae
Description: The in vitro activity of ceftolozane and ceftolozane/tazobactam was evaluated against a broad range of Gram-positive and Gram-negative bacteria.

Row | SMILES | MIC90 [1] [µg/mL] | intrinsic pH [2] | effect on in vitro activity of ceftolozane (in words) [3]
1 | Cn1c(N)c(NC(=O)NCCN)c[n+]1CC1=C(C(=O)O)N2C(=O)[C@@H](NC(=O)/C(=N\OC(C)(C)C(=O)O)c3nsc(N)n3)[C@H]2SC1 [ceftolozane, (6R,7R)-3-[(5-amino-4-{[(2-aminoethyl)carbamoyl]amino}-1-methyl-1H-pyrazol-2-ium-2-yl)methyl]-7-({(2Z)-2-(5-amino-1,2,4-thiadiazol-3-yl)-2-[(1-carboxy-1-methylethoxy)imino]acetyl}amino)-8-oxo-5-thia-1-azabicyclo[4.2.0]oct-2-ene-2-carboxylate] | ≤ 2 | 1.92 | 
2 | C[C@]1(Cn2ccnn2)[C@H](C(=O)O)N2C(=O)C[C@H]2S1(=O)=O [tazobactam, (2S,3S,5R)-3-methyl-7-oxo-3-(1H-1,2,3-triazol-1-ylmethyl)-4-thia-1-azabicyclo[3.2.0]heptane-2-carboxylic acid 4,4-dioxide] |  |  | potentiated the activity of ceftolozane
